Literature values, collected in patent US20240398838A1 (priority 2023, published 2024).
Square brackets hold non-standard residues; d marks the D form. Peptide text beside a SMILES is read from it. Cit = NC(=O)NCCC[C@H](N)C(=O)O

Columns and labels:
[1] = compared to α-tocopherol = 1.0
[2] = individuals with metabolic syndrome
CB2 receptor = CB2 receptor (Homo sapiens, UniProt P34972)
[3] = arthritic subjects
ticks and mosquitoes = details: compared with DEET
[4] = topical, within four weeks of treatment
[5] = system: herpes simplex virus type 1
[6] = compared to placebo
[7] = in vivo
[8] = patients who did not respond to traditional antidepressant medications
[9] = system: leukemia cells of two cultured leukemia cell lines; details: in vitro
[10] = not given; remark: listed apart in the source
[11] = in vivo; remark: listed apart in the source
[12] = system: wide dynamic range neurons in the ventroposterolateral nucleus of the thalamus; details: in vivo
[13] = mice with colitis
[14] = topical, concentrations 0.5-5%
[15] = even when dietary intake occurs in equal portions

Chain of CB2 receptor (P34972 whole entry): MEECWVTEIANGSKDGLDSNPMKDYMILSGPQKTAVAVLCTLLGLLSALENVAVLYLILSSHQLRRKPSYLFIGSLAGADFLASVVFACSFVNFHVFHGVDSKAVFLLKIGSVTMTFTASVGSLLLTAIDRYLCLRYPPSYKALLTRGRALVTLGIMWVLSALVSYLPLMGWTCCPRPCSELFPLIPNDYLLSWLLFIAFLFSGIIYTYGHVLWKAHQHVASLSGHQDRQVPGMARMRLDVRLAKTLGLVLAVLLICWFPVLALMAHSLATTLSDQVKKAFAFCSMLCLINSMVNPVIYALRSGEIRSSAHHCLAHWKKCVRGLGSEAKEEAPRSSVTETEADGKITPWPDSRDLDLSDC

## Cc1cc(O)cc2c1O[C@](C)(CCC[C@H](C)CCC[C@H](C)CCCC(C)C)CC2 [δ-tocopherol]
[1]
  relative biological activity: 0.03
[2]
  markers of inflammation in the blood: reduced markers of inflammation

## C=C1CC/C=C(\C)CC[C@@H]2[C@@H]1CC2(C)C [β-caryophyllene]
CB2 receptor
  activity at CB2 receptor: functional CB2 agonist
[3]
  swelling of joints and lymph nodes: reduced swelling of joints and lymph nodes

## C=C(C)[C@@H]1CCC2=CCC[C@@H](C)[C@]2(C)C1 [Valencene]
Ticks and mosquitoes
  toxicity to ticks and mosquitoes: toxic to ticks and mosquitoes at lesser concentrations than DEET

## CC[C@H](C)[C@H](NC(=O)[C@H](CC(=O)O)NC(=O)[C@@H](N)CCCCN)C(=O)N[C@@H](CCCNC(N)=O)C(N)=O [Tripeptide-10 citrulline] (H-KDI[Cit]-NH2)
[4]
  improve suppleness: ≤ 54%

## CC1(C)[C@@H]2CC[C@@]1(C)[C@@H](O)C2 [Isoborneol]
[5]
  inhibition of herpes simplex virus type 1: potent inhibitor

## C/C(=C\CO)CCC[C@H](C)CCC[C@H](C)CCCC(C)C [Phytol]
other
  solubility: nearly insoluble in water, but soluble in most organic solvents

## Cc1ccc(C(C)C)cc1 [p-cymene, 1-isopropyl-4-methylbenzene]
Candida species
  antifungal activity: strong antifungal activity

## C/C=C1\[C@H]2C=C(C)C[C@]1(N)c1ccc(=O)[nH]c1C2 [Huperzine A]
[6]
  memory recall and cognitive function: significant improvements

## CC1=CCC(=C(C)C)CC1 [Terpinolene]
AKT1 gene
  expression of the AKT1 gene: markedly reduces

## HGH: hormone comprising a peptide chain that is synthesized in the pituitary gland
[7]
  biological half-life: 10-20 minutes

## CN1c2c([nH]c(N)nc2=O)NCC1CNc1ccc(C(=O)N[C@@H](CCC(=O)O)C(=O)O)cc1 (some centres unmarked) [5-MTHF, 5-methyltetrahydrofolate]
[8]
  symptoms of depression: improved symptoms of depression

## CC(C)=CCC[C@](C)(O)[C@@H]1CC=C(C)CC1 [A-bisabolol, α-bisabolol]
Candida species
  antifungal activity: potent inhibitor

## CC12CCC(CC1)C(C)(C)O2 [eucalyptol, 1,8-epoxy-p-menthane]
[9]
  killing of leukemia cells: able to kill

## Cc1cc(O)c(C)c2c1O[C@](C)(CCC[C@H](C)CCC[C@H](C)CCCC(C)C)CC2 [β-tocopherol]
[1]
  relative biological activity: 0.5

## Cc1c(C)c2c(c(C)c1O)CC[C@@](C)(CCC[C@H](C)CCC[C@H](C)CCCC(C)C)O2 [α-tocopherol]
[10]; 1600-3200 IU/day
  blood plasma concentration of F2-isoprostane: significantly lower
[10]; doses up to 400 IU/day
  reducing the risk of coronary disease: up to 34%
[10]; doses up to 400 IU/day, controlled trials
  reduce the risk of developing neurodegenerative diseases such as Alzheimer's Syndrome or dementia: ≤ 24%

## CCNC(=O)CC[C@H](N)C(=O)O [Theanine]
[11]
  dose considered safe and well-tolerated: up to 400 mg per day

## CCCCCc1cc(O)c2c(c1)OC(C)(C)C1CCC(C)=CC21 (centres unmarked) [THC, Δ-9-tetrahydrocannabinol]
[12]
  power in mediating pain relative to morphine: ten times more powerful than morphine
[13]
  modulation of the gut microbiome: ability to modulate the gut microbiome

## C=CCCCCCCCCC(=O)N[C@@H](Cc1ccccc1)C(=O)O [UP, Undecylenoyl phenylalanine]
[14]
  time of treatment to skin lightening effects: ≥ 7 days

## Cc1c(O)cc2c(c1C)O[C@](C)(CCC[C@H](C)CCC[C@H](C)CCCC(C)C)CC2 [γ-tocopherol]
[1]
  relative biological activity: 0.1
[15]
  concentration in vivo relative to α-tocopherol: roughly 10%

## C=C(C)[C@@H]1CCC(C)=C[C@H]1c1c(O)cc(CCCCC)cc1O [CBD, cannabidiol]
[13]
  modulation of the gut microbiome: ability to modulate the gut microbiome
